Key:
Conditions in all cases: binder
TLK1 = molecular target: T1, TLK1 (Homo sapiens, UniProt Q9UKI8)
T1 sequence (Q9UKI8 1-766): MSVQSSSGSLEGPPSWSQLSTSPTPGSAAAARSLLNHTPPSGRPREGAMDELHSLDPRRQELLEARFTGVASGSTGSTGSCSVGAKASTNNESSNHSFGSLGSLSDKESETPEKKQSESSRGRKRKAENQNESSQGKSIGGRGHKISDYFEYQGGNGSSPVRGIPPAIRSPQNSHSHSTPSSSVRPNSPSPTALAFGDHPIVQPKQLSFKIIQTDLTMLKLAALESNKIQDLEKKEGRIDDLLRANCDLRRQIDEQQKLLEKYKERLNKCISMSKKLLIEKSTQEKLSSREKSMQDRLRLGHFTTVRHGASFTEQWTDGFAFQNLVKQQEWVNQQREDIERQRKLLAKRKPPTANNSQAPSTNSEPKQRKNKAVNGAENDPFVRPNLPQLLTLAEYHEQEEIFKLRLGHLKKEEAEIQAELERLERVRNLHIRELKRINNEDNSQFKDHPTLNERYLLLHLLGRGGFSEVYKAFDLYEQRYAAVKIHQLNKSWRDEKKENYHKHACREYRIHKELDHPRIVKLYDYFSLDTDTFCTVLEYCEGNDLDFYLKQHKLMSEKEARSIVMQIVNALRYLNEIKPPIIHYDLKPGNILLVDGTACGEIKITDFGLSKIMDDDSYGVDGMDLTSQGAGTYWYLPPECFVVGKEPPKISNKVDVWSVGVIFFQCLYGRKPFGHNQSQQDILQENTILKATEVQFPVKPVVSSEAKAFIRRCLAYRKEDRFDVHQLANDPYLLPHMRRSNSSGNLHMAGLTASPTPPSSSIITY

TAF1 = TAF1 (Homo sapiens, UniProt P21675)
MST3 = MST3 (Homo sapiens, UniProt Q9Y6E0)
MST4 = MST4 (Homo sapiens, UniProt Q9P289)
PAK1 = PAK1 (Homo sapiens, UniProt Q13153)
MST1 = molecular target: T2, MST1 (Homo sapiens, UniProt Q13043)
T2 sequence (Q13043 1-487): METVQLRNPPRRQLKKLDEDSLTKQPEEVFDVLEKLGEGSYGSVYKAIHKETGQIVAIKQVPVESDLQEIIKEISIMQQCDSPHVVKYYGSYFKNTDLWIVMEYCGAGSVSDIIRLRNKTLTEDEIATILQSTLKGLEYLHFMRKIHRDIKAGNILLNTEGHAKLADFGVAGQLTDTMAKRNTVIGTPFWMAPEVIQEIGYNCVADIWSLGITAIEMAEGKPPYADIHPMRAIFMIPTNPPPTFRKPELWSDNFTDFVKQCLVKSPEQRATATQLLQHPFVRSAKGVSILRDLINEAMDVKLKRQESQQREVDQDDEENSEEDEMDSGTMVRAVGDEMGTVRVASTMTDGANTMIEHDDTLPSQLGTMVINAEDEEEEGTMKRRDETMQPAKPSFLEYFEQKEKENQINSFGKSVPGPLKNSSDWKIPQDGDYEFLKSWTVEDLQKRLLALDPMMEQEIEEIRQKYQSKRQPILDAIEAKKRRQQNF

PCTAIRE1 = PCTAIRE1 (Homo sapiens, UniProt Q00536)
FGFR1 = FGFR1 (Homo sapiens, UniProt P11362)
FES = FES (Homo sapiens, UniProt P07332)
EphA5 = EphA5 (Homo sapiens, UniProt P54756)
EphA5, sequence (P54756 whole entry): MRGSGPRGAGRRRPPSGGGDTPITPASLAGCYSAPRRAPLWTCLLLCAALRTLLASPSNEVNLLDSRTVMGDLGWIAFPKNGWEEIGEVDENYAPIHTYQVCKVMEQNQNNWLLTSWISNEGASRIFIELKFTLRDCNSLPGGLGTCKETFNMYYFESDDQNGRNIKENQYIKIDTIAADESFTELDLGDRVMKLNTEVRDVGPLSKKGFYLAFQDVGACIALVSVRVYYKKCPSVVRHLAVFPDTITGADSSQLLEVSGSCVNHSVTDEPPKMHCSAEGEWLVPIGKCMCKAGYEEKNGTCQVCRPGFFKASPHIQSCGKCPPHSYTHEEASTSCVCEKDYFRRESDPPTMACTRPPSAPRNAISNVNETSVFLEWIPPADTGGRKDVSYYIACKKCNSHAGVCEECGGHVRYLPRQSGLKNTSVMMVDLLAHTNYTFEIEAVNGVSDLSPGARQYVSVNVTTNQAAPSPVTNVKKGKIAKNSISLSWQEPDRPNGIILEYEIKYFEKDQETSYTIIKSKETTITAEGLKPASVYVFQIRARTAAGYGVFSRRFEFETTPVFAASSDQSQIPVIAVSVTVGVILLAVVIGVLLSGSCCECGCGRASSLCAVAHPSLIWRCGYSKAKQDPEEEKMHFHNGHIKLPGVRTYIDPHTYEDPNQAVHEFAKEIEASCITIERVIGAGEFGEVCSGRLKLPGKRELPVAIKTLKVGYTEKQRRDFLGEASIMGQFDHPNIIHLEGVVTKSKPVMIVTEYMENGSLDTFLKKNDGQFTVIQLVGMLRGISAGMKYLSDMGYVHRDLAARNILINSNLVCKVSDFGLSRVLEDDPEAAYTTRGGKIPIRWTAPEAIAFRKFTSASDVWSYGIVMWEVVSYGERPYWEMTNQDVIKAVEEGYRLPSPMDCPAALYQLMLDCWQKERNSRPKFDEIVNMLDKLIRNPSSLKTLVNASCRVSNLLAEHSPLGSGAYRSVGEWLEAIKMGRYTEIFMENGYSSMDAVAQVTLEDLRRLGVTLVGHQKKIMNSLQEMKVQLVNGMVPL

MST3, sequence (Q9Y6E0 whole entry): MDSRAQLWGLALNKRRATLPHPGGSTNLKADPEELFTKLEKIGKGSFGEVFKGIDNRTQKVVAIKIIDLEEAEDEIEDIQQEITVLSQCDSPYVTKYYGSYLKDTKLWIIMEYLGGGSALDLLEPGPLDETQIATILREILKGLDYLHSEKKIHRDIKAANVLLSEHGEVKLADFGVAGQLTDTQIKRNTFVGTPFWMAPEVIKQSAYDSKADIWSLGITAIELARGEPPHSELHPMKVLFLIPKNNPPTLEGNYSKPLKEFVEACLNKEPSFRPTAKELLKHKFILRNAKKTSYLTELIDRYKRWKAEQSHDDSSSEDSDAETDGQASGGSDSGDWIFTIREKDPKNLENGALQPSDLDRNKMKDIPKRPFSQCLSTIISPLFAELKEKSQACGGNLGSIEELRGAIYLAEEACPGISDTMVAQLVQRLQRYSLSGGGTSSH
PCTAIRE1, sequence (Q00536 whole entry): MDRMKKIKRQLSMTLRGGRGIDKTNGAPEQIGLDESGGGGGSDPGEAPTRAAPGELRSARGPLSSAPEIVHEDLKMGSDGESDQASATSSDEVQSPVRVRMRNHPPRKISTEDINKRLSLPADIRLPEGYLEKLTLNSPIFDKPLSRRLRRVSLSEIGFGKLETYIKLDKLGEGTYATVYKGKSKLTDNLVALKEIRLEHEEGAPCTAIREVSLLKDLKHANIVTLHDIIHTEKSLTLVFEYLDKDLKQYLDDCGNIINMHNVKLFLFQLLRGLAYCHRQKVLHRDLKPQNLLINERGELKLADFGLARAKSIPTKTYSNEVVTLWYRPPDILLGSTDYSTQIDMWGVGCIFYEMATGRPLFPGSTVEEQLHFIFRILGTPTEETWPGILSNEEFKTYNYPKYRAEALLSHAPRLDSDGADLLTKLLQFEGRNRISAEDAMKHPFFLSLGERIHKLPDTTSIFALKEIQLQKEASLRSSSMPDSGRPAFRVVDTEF
MST4, sequence (Q9P289 whole entry): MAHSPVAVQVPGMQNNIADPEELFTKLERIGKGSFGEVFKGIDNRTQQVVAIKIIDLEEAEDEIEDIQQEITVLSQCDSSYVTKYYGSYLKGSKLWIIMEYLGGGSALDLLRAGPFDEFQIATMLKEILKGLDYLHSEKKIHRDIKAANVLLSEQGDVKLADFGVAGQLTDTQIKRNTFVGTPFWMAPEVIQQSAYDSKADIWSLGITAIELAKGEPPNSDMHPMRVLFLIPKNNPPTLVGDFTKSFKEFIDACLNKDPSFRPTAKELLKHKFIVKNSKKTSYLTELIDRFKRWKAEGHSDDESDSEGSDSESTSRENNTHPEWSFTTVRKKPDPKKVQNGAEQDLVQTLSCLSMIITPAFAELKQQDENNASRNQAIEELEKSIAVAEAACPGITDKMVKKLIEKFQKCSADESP
FES, sequence (P07332 whole entry): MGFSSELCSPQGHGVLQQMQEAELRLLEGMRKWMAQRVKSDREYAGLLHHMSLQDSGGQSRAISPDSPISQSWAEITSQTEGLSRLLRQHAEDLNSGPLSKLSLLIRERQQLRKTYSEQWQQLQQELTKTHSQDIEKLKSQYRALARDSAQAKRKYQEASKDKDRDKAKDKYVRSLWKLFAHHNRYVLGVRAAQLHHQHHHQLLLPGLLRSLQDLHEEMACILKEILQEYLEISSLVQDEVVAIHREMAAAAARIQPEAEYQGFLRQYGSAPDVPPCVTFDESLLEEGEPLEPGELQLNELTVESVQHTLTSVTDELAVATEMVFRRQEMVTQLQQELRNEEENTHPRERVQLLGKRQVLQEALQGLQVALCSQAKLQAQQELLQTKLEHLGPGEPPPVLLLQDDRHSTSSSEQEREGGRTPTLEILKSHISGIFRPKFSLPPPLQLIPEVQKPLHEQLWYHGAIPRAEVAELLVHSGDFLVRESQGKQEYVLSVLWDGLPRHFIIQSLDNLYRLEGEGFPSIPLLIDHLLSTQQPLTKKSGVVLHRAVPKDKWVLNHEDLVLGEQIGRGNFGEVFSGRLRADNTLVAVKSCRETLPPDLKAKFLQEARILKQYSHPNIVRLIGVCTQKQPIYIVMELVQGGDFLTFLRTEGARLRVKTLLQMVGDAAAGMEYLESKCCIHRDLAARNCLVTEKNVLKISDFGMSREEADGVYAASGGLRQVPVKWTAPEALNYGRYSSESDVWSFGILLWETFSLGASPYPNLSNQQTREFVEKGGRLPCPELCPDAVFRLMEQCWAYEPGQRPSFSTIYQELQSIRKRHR
FGFR1, sequence (P11362 whole entry): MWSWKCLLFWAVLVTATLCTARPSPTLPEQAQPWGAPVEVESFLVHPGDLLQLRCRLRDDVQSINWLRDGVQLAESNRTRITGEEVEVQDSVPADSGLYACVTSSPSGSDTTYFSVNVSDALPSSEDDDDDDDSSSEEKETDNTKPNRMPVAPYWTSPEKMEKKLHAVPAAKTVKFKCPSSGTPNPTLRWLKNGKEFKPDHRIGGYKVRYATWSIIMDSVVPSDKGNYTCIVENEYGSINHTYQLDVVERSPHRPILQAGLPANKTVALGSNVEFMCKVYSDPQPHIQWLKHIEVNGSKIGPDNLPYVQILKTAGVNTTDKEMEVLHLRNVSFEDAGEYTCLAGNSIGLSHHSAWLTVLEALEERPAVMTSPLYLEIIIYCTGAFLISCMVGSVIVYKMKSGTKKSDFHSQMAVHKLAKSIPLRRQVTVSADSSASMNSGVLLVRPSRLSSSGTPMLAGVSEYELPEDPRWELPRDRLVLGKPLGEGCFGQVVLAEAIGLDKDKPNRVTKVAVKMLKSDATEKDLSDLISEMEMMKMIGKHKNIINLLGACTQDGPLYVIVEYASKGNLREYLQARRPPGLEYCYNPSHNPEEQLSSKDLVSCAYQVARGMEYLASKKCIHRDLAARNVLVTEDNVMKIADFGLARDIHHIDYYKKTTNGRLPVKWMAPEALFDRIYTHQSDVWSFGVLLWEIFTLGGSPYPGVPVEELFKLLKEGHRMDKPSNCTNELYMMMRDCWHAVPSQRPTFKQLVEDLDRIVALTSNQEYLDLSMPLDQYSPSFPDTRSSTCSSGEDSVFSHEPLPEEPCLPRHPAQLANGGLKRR
PAK1, sequence (Q13153 whole entry): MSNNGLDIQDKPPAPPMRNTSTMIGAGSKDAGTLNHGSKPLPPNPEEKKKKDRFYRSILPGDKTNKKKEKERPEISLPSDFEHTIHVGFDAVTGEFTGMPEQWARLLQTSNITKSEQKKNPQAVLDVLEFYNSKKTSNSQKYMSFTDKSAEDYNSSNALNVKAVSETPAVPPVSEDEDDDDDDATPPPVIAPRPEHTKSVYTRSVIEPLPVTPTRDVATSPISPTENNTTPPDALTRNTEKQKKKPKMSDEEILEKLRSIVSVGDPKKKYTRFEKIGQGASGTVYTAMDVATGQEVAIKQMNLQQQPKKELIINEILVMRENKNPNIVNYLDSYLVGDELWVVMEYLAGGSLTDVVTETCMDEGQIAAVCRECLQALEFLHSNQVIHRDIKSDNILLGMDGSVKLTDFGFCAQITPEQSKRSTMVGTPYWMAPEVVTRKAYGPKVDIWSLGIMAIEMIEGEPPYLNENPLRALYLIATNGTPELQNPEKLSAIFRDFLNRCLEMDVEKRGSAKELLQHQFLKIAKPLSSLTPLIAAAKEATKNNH

Compound | dTm MST3 (MST3) [°C] | dTm MST4 (MST4) [°C] | dTm PAK1 (PAK1) [°C] | dTm MST1 (MST1) [°C] | also measured
CNc1ncc2cc(-c3ccc(-c4cccc(C)n4)cc3Cl)c(=O)n(CCCCN)c2n1 [compound 20, MRLW5] | – | – | – | – | ΔTm MRLW5 (20) (TLK1): 0.6 °C; ΔTm MRLW5 (20) (TAF1): 0.0 °C
CNc1ncc2cc(-c3ccc(-c4cccc(C)n4)cc3Cl)c(=O)n(CCC3CCNCC3)c2n1 [compound 22, 6-(2-Chloro-4-(6-methylpyridin-2-yl)phenyl)-2-(methylamino)-8-(2-(piperidin-4-yl)ethyl)pyrido[2,3-d]pyrimidin-7(8H)-one] | – | – | – | – | ΔTm 22 (TLK1): 0.2 °C; ΔTm 22 (TAF1): 0.3 °C
CNc1ncc2cc(-c3ccc(-c4cccc(C)n4)cc3Cl)c(=O)n(C[C@H]3CC[C@H](N)CC3)c2n1 [compound 23, 23] | – | – | – | – | ΔTm 23 (TLK1): 0.6 °C; ΔTm 23 (TAF1): -0.5 °C
Cc1cccc(-c2ccc(-c3cc4cnc(NCCCc5ccc(N)cc5)nc4n(CCCCN)c3=O)c(Cl)c2)n1 [compound 25, 8-(4-Aminobutyl)-2-((3-(4-aminophenyl)propyl)amino)-6-(2-chloro-4-(6-methylpyridin-2-yl)phenyl)pyrido[2,3-d]pyrimidin-7(8H)-one] | 12.2 | 9.7 | 6.8 | 4.9 | ΔTm 25 (TLK1): -0.9 °C; ΔTm 25 (TAF1): -0.1 °C
Cc1cccc(-c2ccc(-c3cc4cnc(NCCCN5CCCC5=O)nc4n(CCCCN)c3=O)c(Cl)c2)n1 [compound 27, MR30] | 10.6 | 7.5 | 3.6 | 1.1 | ΔTm MR30 (27) (TLK1): -2.0 °C; ΔTm MR30 (27) (PCTAIRE1): 2.9 °C; ΔTm MR30 (27) (FGFR1): 0.2 °C; ΔTm MR30 (27) (FES): 5.0 °C; ΔTm MR30 (27) (TAF1): 0.0 °C; ΔTm MR30 (27) (EphA5): 2.8 °C
Cc1cccc(-c2ccc(-c3cc4cnc(Nc5cc(C(F)(F)F)ccc5C)nc4n(CCCCN)c3=O)c(Cl)c2)n1 [compound 28, 8-(4-Aminobutyl)-6-(2-chloro-4-(6-methylpyridin-2-yl)phenyl)-2-((2-methyl-5-(trifluoromethyl)phenyl)amino)pyrido[2,3-d]pyrimidin-7(8H)-one] | 13.0 | 9.5 | 5.9 | 5.8 | ΔTm 28 (TLK1): -1.8 °C; ΔTm 28 (PCTAIRE1): 1.1 °C; ΔTm 28 (FGFR1): 1.1 °C; ΔTm 28 (FES): 8.5 °C; ΔTm 28 (TAF1): 0.4 °C; ΔTm 28 (EphA5): 4.5 °C
Cc1cccc(-c2ccc(-c3cc4cnc(Nc5ccc(CCCO)cc5)nc4n(CCCCN)c3=O)c(Cl)c2)n1 [compound 30, 8-(4-Aminobutyl)-6-(2-chloro-4-(6-methylpyridin-2-yl)phenyl)-2-((4-(3-hydroxypropyl)phenyl)amino)pyrido[2,3-d]pyrimidin-7(8H)-one] | 16.7 | 15.3 | 9.1 | 8.7 | ΔTm 30 (TLK1): -0.9 °C; ΔTm 30 (PCTAIRE1): 5.0 °C; ΔTm 30 (FGFR1): 1.0 °C; ΔTm 30 (FES): 9.1 °C; ΔTm 30 (TAF1): -0.5 °C; ΔTm 30 (EphA5): 6.6 °C
COc1ccc(O)c(Nc2ncc3cc(-c4ccc(-c5cccc(C)n5)cc4Cl)c(=O)n(CCCCN)c3n2)c1 [compound 34, 8-(4-Aminobutyl)-6-(2-chloro-4-(6-methylpyridin-2-yl)phenyl)-2-((2-hydroxy-5-methoxy-phenyl)amino)pyrido[2,3-d]pyrimidin-7(8H)-one] | 11.0 | 8.3 | 4.5 | 3.8 | –
COc1cc(N2CCN(C)CC2)ccc1Nc1ncc2cc(-c3ccc(-c4cccc(C)n4)cc3Cl)c(=O)n(CCCCN)c2n1 [compound 36, 8-(4-Aminobutyl)-6-(2-chloro-4-(6-methylpyridin-2-yl)phenyl)-2-((2-methoxy-4-(4-methylpiperazin-1-yl)phenyl)amino)pyrido[2,3-d]pyrimidin-7(8H)-one] | 13.5 | 6.7 | 8.8 | 4.0 | –

Second part, led by results:

dTm MST3 (MST3) [°C] | dTm MST4 (MST4) [°C] | dTm PAK1 (PAK1) [°C] | dTm MST1 (MST1) [°C] | Compound | also measured
10.6 | 8.1 | 5.1 | 2.1 | Cc1cccc(-c2ccc(-c3cc4cnc(NC(CO)CO)nc4n(CCCCN)c3=O)c(Cl)c2)n1 [compound 24, 8-(4-Aminobutyl)-6-(2-chloro-4-(6-methylpyridin-2-yl)phenyl)-2-((1,3-dihydroxypropan-2-yl)amino)pyrido[2,3-d]pyrimidin-7(8H)-one] | ΔTm MR24 (24) (TLK1): -1.8 °C; ΔTm MR24 (24) (TAF1): -0.1 °C
11.6 | 10.6 | 4.1 | 3.6 | Cc1cccc(-c2ccc(-c3cc4cnc(NCCCN5CCOCC5)nc4n(CCCCN)c3=O)c(Cl)c2)n1 [compound 26, MR26] | ΔTm MR26 (26) (TLK1): -1.6 °C; ΔTm MR26 (26) (TAF1): 0.0 °C
13.0 | 8.9 | 5.0 | 3.1 | Cc1cccc(-c2ccc(-c3cc4cnc(NCCCN5CCNCC5)nc4n(CCCCN)c3=O)c(Cl)c2)n1 [compound 29, 8-(4-Aminobutyl)-6-(2-chloro-4-(6-methylpyridin-2-yl)phenyl)-2-((3-(piperazin-1-yl)propyl)amino)pyrido[2,3-d]pyrimidin-7(8H)-one] | ΔTm 29 (TLK1): -1.5 °C; ΔTm 29 (PCTAIRE1): 2.5 °C; ΔTm 29 (FGFR1): 0.7 °C; ΔTm 29 (FES): 6.0 °C; ΔTm 29 (TAF1): 0.2 °C; ΔTm 29 (EphA5): 2.7 °C
17.1 | 15.0 | 9.2 | 8.0 | Cc1cccc(-c2ccc(-c3cc4cnc(Nc5ccc(O)cc5)nc4n(CCCCN)c3=O)c(Cl)c2)n1 [compound 31, 8-(4-Aminobutyl)-6-(2-chloro-4-(6-methylpyridin-2-yl)phenyl)-2-((4-hydroxyphenyl)amino) pyrido[2,3-d]pyrimidin-7(8H)-one] | ΔTm 31 (TLK1): -1.6 °C; ΔTm 31 (PCTAIRE1): 5.0 °C; ΔTm 31 (FGFR1): 1.5 °C; ΔTm 31 (FES): 8.7 °C; ΔTm 31 (TAF1): -1.0 °C; ΔTm 31 (EphA5): 6.2 °C
16.9 | 14.8 | 9.3 | 8.6 | Cc1cccc(-c2ccc(-c3cc4cnc(Nc5ccc(F)c(CO)c5)nc4n(CCCCN)c3=O)c(Cl)c2)n1 [compound 33, 8-(4-Aminobutyl)-6-(2-chloro-4-(6-methylpyridin-2-yl)phenyl)-2-((4-fluoro-3-(hydroxymethyl)phenyl)amino)pyrido[2,3-d]pyrimidin-7(8H)-one] | –
11.0 | 9.2 | 5.0 | 4.6 | COc1cc(N2CCOCC2)ccc1Nc1ncc2cc(-c3ccc(-c4cccc(C)n4)cc3Cl)c(=O)n(CCCCN)c2n1 [compound 35, 8-(4-Aminobutyl)-6-(2-chloro-4-(6-methylpyridin-2-yl)phenyl)-2-((2-methoxy-4-morpholino-phenyl)amino)pyrido[2,3-d]pyrimidin-7(8H)-one] | –
